In article PMC10913484, “Hydroxyhexylitaconic acids as potent IMP-type metallo-β-lactamase inhibitors for controlling carbapenem resistance in Enterobacterales” (Microbiology Spectrum, 2024):
Converted amounts (≈) assume the structure as drawn. Like-named read-outs stand apart in the source and are kept apart here.

What was measured:
IMP-1 [1] = biological target: T1, IMP-1 (Serratia marcescens, UniProt P52699); type: biochemical; settings: IMP-1 with agent (5 mM stock), dialysis
T1 construct: made in house
Protocol: A total of 5 µL of IMP-1 (100 µM) and 2 µL of EDTA (5 mM) or HHIA (5 mM) were mixed in 100 µL of 20 mM HEPES buffer (pH 7.5) pretreated with Chelex 100 resin (Bio-Rad) and incubated on ice for 30 min. The samples were dialyzed against ultrapure water at 4°C for 6 h using Slide-A-Lyzer Dialysis Cassettes (cutoff, 3.5 K) (Thermo Fisher Scientific) and treated with proteinase K (FUJIFILM Wako Pure Chemical Corporation) at 37°C for 1 h. The zinc concentration in the samples was determined using a Zinc Assay Kit (MG Metallogenics).

[2] = tested on: P. penneri E11-M475 (IMP-1); assay: Susceptibility test, clinical isolate; type: cell-based; settings: Proteus penneri
Protocol: (§1) Susceptibility testing, based on the microdilution method, was performed according to the guidelines of the Clinical and Laboratory Standards Institute ([36]).

E. coli NUBL-24 (IMP-1) = assay: Susceptibility test, clinical isolate; type: cell-based; settings: Escherichia coli
Protocol: as §1

[3] = tested on: K. oxytoca NUBL-827 (IMP-1); assay: Susceptibility test, clinical isolate; type: cell-based; settings: Klebsiella oxytoca
Protocol: as §1

E. coli 426 (IMP-1) = assay: Susceptibility test, clinical isolate; type: cell-based; settings: Escherichia coli
Protocol: as §1

[4] = tested on: K. pneumoniae NUBL-23 (IMP-6); assay: Susceptibility test, clinical isolate; type: cell-based; settings: Klebsiella pneumoniae
Protocol: as §1

[5] = tested on: K. pneumoniae AR0076 (VIM-1); assay: Susceptibility test, clinical isolate; type: cell-based; settings: Klebsiella pneumoniae
Protocol: as §1

E. coli NUBL-22 (IMP-6) = assay: Susceptibility test, clinical isolate; type: cell-based; settings: Escherichia coli
Protocol: as §1

[6] = tested on: K. pneumoniae MS5674 (NDM-1/VIM-1); assay: Susceptibility test, clinical isolate; type: cell-based; settings: Klebsiella pneumoniae
Protocol: as §1

[7] = tested on: E. cloacae NUBL-5 (IMP-1); assay: Susceptibility test, clinical isolate; type: cell-based; settings: Enterobacter cloacae
Protocol: as §1

E. coli 465 (IMP-1) = assay: Susceptibility test, clinical isolate; type: cell-based; settings: Escherichia coli
Protocol: as §1

[8] = tested on: K. pneumoniae AR0034 (IMP-4); assay: Susceptibility test, clinical isolate; type: cell-based; settings: Klebsiella pneumoniae
Protocol: as §1

SMB-1 = assay: In vitro inhibition assay (IPM hydrolysis); type: biochemical; settings: even at high doses (100 µM)
Protocol: (§2) MBLs were incubated with HHIAs in 20 mM HEPES buffer (pH 7.5) containing 200 mM NaCl and 50 µg/mL BSA at 30°C for 5 min. IPM was added at a concentration of 100 µM, and the rate of IPM hydrolysis was monitored at 297 nm. The initial velocity (v0) rates were plotted against HHIA’s logarithmic concentrations, and the data were fitted to a four-parameter variable slope to obtain the half-maximal inhibitor concentration (IC50) values using GraphPad Prism 9 software (GraphPad Software). The inhibition constant (Ki) was determined as follows: v0 was measured after varying the concentrations of IPM and HHIAs, and inverse v0 (1/v0) was plotted against the inverse IPM concentration [1/(IPM)]. Lineweaver–Burk plots were created to obtain Ki values under the competitive inhibition model using the SigmaPlot 14 suite (Hulinks).

NDM-1 = biological target: T2, NDM-1 (Klebsiella pneumoniae, UniProt C7C422); assay: In vitro inhibition assay (IPM hydrolysis); type: biochemical; settings: even at high doses (100 µM)
T2 construct: made in house
Protocol: as §2

IMP-1 [9] = biological target: T1, IMP-1; assay: In vitro inhibition assay (IPM hydrolysis); type: biochemical
Protocol: as §2

IMP-6 = biological target: T3, IMP-6 (Serratia marcescens, UniProt P52699, S214G); assay: In vitro inhibition assay (IPM hydrolysis); type: biochemical
T3 construct: made in house
Protocol: as §2

VIM-2 = biological target: T4, VIM-2 (Escherichia coli, UniProt Q5U7L7); assay: In vitro inhibition assay (IPM hydrolysis); type: biochemical
T4 construct: made in house
Protocol: as §2

[10] = +HHIA 6.25 µg/mL, read-out: IPM MIC
[11] = +HHIA 6.25 μg/mL, read-out: MPM MIC
[12] = +HHIA 25 µg/mL, read-out: IPM MIC
[13] = +HHIA 25 μg/mL, read-out: MPM MIC
[14] = +HHIA 100 µg/mL, read-out: IPM MIC
[15] = +HHIA 100 μg/mL, read-out: MPM MIC

T1 sequence (P52699 19-246, looked up, species assumed): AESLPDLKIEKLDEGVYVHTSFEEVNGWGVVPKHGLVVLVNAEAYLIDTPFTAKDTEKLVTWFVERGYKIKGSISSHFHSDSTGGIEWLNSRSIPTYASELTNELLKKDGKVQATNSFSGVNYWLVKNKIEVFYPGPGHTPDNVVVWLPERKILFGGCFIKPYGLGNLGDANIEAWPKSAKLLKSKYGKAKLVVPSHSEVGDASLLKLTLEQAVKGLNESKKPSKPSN
T2 sequence (C7C422 29-270 limits assumed): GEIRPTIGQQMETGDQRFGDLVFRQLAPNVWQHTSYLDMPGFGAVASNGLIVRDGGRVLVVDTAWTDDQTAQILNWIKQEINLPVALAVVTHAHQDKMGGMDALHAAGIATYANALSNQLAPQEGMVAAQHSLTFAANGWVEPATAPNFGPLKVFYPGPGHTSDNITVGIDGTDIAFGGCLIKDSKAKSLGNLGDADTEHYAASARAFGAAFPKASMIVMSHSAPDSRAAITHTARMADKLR
T3 sequence (P52699 19-246 S214G): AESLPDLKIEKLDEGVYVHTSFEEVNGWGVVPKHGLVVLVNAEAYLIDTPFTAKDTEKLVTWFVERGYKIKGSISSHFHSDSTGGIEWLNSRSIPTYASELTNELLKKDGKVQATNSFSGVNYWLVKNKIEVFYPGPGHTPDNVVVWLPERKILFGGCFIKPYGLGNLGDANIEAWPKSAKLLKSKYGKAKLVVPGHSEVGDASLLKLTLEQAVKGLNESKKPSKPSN

SMILES: C=C(C(=O)O)C(CCCCCCO)C(=O)O (centres unmarked) [10-HHIA, 10-hydroxyhexylitaconic acid]
- Zinc ions in IMP-1 after treatment (IMP-1 [1]): did not cause a significant loss of zinc ions
- MIC [2, 10]: > 64 mg/L
- MIC [2, 11]: > 64 mg/L
- MIC [2, 12]: > 64 mg/L
- MIC [2, 13]: > 64 mg/L
- MIC [2, 14]: 64 mg/L (≈ 278 µM)
- MIC [2, 15]: 16 mg/L (≈ 69.5 µM)
- MIC (E. coli NUBL-24 (IMP-1); +HHIA 6.25 µg/mL, E. coli NUBL-24 (IMP-1), read-out: IPM MIC): 4 mg/L (≈ 17.4 µM)
- MIC (E. coli NUBL-24 (IMP-1); +HHIA 6.25 μg/mL, E. coli NUBL-24 (IMP-1), read-out: MPM MIC): 4 mg/L (≈ 17.4 µM)
- MIC (E. coli NUBL-24 (IMP-1); +HHIA 25 µg/mL, E. coli NUBL-24 (IMP-1), read-out: IPM MIC): 1 mg/L (≈ 4.34 µM)
- MIC (E. coli NUBL-24 (IMP-1); +HHIA 25 μg/mL, E. coli NUBL-24 (IMP-1), read-out: MPM MIC): 0.5 mg/L (≈ 2.17 µM)
- MIC (E. coli NUBL-24 (IMP-1); +HHIA 100 µg/mL, E. coli NUBL-24 (IMP-1), read-out: IPM MIC): 1 mg/L (≈ 4.34 µM)
- MIC (E. coli NUBL-24 (IMP-1); read-out: MPM MIC): 0.125 mg/L (≈ 0.543 µM)
- MIC [3, 10]: 8 mg/L (≈ 34.7 µM)
- MIC [3, 11]: 16 mg/L (≈ 69.5 µM)
- MIC [3, 12]: 4 mg/L (≈ 17.4 µM)
- MIC [3, 13]: 8 mg/L (≈ 34.7 µM)
- MIC [3, 14]: 2 mg/L (≈ 8.69 µM)
- MIC [3, 15]: 1 mg/L (≈ 4.34 µM)
- MIC (E. coli 426 (IMP-1); [10]): 8 mg/L (≈ 34.7 µM)
- MIC (E. coli 426 (IMP-1); [11]): 8 mg/L (≈ 34.7 µM)
- MIC (E. coli 426 (IMP-1); [12]): 4 mg/L (≈ 17.4 µM)
- MIC (E. coli 426 (IMP-1); [13]): 1 mg/L (≈ 4.34 µM)
- MIC (E. coli 426 (IMP-1); [14]): 2 mg/L (≈ 8.69 µM)
- MIC (E. coli 426 (IMP-1); [15]): 0.25 mg/L (≈ 1.09 µM)
- MIC [4, 10]: 0.5 mg/L (≈ 2.17 µM)
- MIC [4, 11]: 32 mg/L (≈ 139 µM)
- MIC [4, 12]: 0.25 mg/L (≈ 1.09 µM)
- MIC [4, 13]: 2 mg/L (≈ 8.69 µM)
- MIC [4, 14]: 0.5 mg/L (≈ 2.17 µM)
- MIC [4, 15]: 0.25 mg/L (≈ 1.09 µM)
- MIC [5, 10]: 32 mg/L (≈ 139 µM)
- MIC [5, 11]: 32 mg/L (≈ 139 µM)
- MIC [5, 12]: 32 mg/L (≈ 139 µM)
- MIC [5, 13]: 32 mg/L (≈ 139 µM)
- MIC [5, 14]: 16 mg/L (≈ 69.5 µM)
- MIC [5, 15]: 32 mg/L (≈ 139 µM)
- MIC (E. coli NUBL-22 (IMP-6); [10]): 1 mg/L (≈ 4.34 µM)
- MIC (E. coli NUBL-22 (IMP-6); [11]): 16 mg/L (≈ 69.5 µM)
- MIC (E. coli NUBL-22 (IMP-6); [12]): 0.5 mg/L (≈ 2.17 µM)
- MIC (E. coli NUBL-22 (IMP-6); [13]): 8 mg/L (≈ 34.7 µM)
- MIC (E. coli NUBL-22 (IMP-6); [14]): 0.5 mg/L (≈ 2.17 µM)
- MIC (E. coli NUBL-22 (IMP-6); [15]): 1 mg/L (≈ 4.34 µM)
- MIC [6, 10]: 32 mg/L (≈ 139 µM)
- MIC [6, 11]: > 64 mg/L
- MIC [6, 12]: 64 mg/L (≈ 278 µM)
- MIC [6, 13]: > 64 mg/L
- MIC [6, 14]: 32 mg/L (≈ 139 µM)
- MIC [6, 15]: 64 mg/L (≈ 278 µM)
- MIC [7, 10]: 8 mg/L (≈ 34.7 µM)
- MIC [7, 11]: 16 mg/L (≈ 69.5 µM)
- MIC [7, 12]: 4 mg/L (≈ 17.4 µM)
- MIC [7, 13]: 16 mg/L (≈ 69.5 µM)
- MIC [7, 14]: 1 mg/L (≈ 4.34 µM)
- MIC [7, 15]: 8 mg/L (≈ 34.7 µM)
- MIC (E. coli 465 (IMP-1); [10]): 16 mg/L (≈ 69.5 µM)
- MIC (E. coli 465 (IMP-1); [11]): 16 mg/L (≈ 69.5 µM)
- MIC (E. coli 465 (IMP-1); [12]): 4 mg/L (≈ 17.4 µM)
- MIC (E. coli 465 (IMP-1); [13]): 4 mg/L (≈ 17.4 µM)
- MIC (E. coli 465 (IMP-1); [14]): 1 mg/L (≈ 4.34 µM)
- MIC (E. coli 465 (IMP-1); [15]): 0.25 mg/L (≈ 1.09 µM)
- MIC ([8]; +HHIA 6.25 µg/mL, K. pneumoniae AR0034 (IMP-4), read-out: IPM MIC): 2 mg/L (≈ 8.69 µM)
- MIC ([8]; +HHIA 6.25 μg/mL, K. pneumoniae AR0034 (IMP-4), read-out: MPM MIC): 4 mg/L (≈ 17.4 µM)
- MIC ([8]; +HHIA 25 µg/mL, K. pneumoniae AR0034 (IMP-4), read-out: IPM MIC): 1 mg/L (≈ 4.34 µM)
- MIC ([8]; +HHIA 25 μg/mL, K. pneumoniae AR0034 (IMP-4), read-out: MPM MIC): 0.5 mg/L (≈ 2.17 µM)
- MIC ([8]; +HHIA 100 µg/mL, K. pneumoniae AR0034 (IMP-4), read-out: IPM MIC): 0.5 mg/L (≈ 2.17 µM)
- MIC ([8]; read-out: MPM MIC): 0.125 mg/L (≈ 0.543 µM)
- Inhibition of hydrolyzing activity of SMB-1 (SMB-1): did not inhibit
- Inhibition of hydrolyzing activity of NDM-1 (NDM-1): did not inhibit
- IC50 (IMP-1 [9]): 31.6 µM
- Ki (IMP-1 [9]): 5 µM
- Inhibition mode for IMP-1 (IMP-1 [9]; Lineweaver–Burk plots): competitive inhibitors
- Ki (IMP-6): 21 µM
- Inhibitory activity against VIM-2 (VIM-2): moderate
